Reference: PMC11039692, “SRY-Box transcription factor 9 triggers YAP nuclear entry via direct interaction in tumors” (Signal Transduction and Targeted Therapy, 2024)

How the values were obtained:
YAP [1] = target: T1, YAP (Homo sapiens, UniProt P46937); assay: YAP nuclear level / nuclear translocation in Huh-7 cells; type: cell-based; details: for nuclear transport of YAP: HCC cells (Huh-7), PRMT1 inhibitor MS023 200 nM or siPRMT1
Experimental: Huh-7 cells were infected with lenti-YAP-linker-EGFP-rtTA3 followed by infection with lenti-SOX9-linker-mCherry-rtTA3, with selection using puromycin (Sigma-Aldrich, P9620) or Blasticidin S hydrochloride (Yeasen,60218ES10), and then plated on confocal 6-well plates (Biosharp, BS-15-GJM) at a suitable concentration. Approximately 1 h after doxycycline (DOX, Yeasen, 60204ES03) treatment, live cell images were captured every 30 min using an Olympus SpinSR10 microscope at ×200 magnification. For the PLA, the pretreated cell samples were fixed after DOX induction for 12 h. DOX was administered to the infected Huh-7 cells at a concentration of 1 μg/mL.
(§1) Cytoplasmic and nuclear fractionation was accessed by the Minute^TM Cytoplasmic and Nuclear Fractionation kit (Invent, SC-003) following the manufacturer’s recommendations with some modifications made by us to optimize the protocol. Cells were resuspended in pre-chilled cytoplasm extraction buffer and incubated on ice for 5 min. After a thorough one-minute vortex, the supernatant (cytoplasmic proteins) was obtained by centrifuging at 12,000 rpm for 5 min. To eliminate cytoplasmic proteins, the pellet was washed with pre-chilled PBS, and subsequently resuspended in a nuclear extraction buffer. The sample was vortexed thoroughly for 3 min in an ice bath, and these steps were repeated four times. The precipitate was discarded, and the supernatant (nuclear proteins) was saved for further analysis.

YAP-TEAD = assay: 8×GTIIC YAP-TEAD luciferase reporter assay; type: cell-based
Experimental: Huh-7 cells were transfected with a vector expressing full-length or truncated SOX9 together with a TEAD4-related reporter plasmid, 8×GTIIC (RIKEN, Japan). The pRL-SV40 (Promega, E2261) vector was transfected into all the treated cells and was used to normalize the data. Luciferase reporter gene assays were assayed with the Dual-Luciferase Reporter Assay System (Promega, E2920). All experiments were replicated a minimum of three times.

SOX9 = SOX9 nuclear level in Huh-7 cells; type: cell-based; details: CDZ 5 nM, 24 h
Experimental: as §1

YAP-SOX9 interaction [2] = assay: Co-IP of SOX9-YAP interaction in cells; type: cell-based; details: V5-IP
Experimental: (§2) For protein preparation, cells were lysed in 2× sodium dodecyl sulfate (SDS) protein lysis buffer (4% SDS, 20% glycerol, 100 mM Tris-Cl [pH 6.8], with PMSF or other protease inhibitors). For co-immunoprecipitation (Co-IP), samples were prepared using Pierce^TM IP lysis buffer (Thermo Fisher Scientific, 87787) following the manufacturer's recommendations. Lysates were centrifuged at 12,000 rpm for 10 min, and the supernatants were collected. The protein concentration was determined using a BCA kit (Beyotime, P0010, Shanghai, China). For Co-IP samples, 1 mg of protein was precipitated with 20 μL of agarose-conjugated antibodies. For immunoblotting, protein samples were separated using SDS-polyacrylamide gel electrophoresis and then transferred onto nitrocellulose membranes (Millipore, HAHY00010).

YAP-SOX9 interaction [3] = assay: PLA of SOX9-YAP interaction in cells; type: cell-based; details: HCC cells (DOX-induced Huh-7), peptides 10 μM, 24 h
Experimental: The pretreated cell samples were grown on coverslips, fixed in 4% paraformaldehyde (PFA) for 15 minutes, and then washed two times in PBS. Following a 1-hour incubation at 37 °C with blocking solution® (Sigma-Aldrich, DUO82007), the cells were incubated with primary antibodies at optimal concentrations overnight at 4 °C. After three washes in Buffer A® (Sigma-Aldrich, DUO82049), the samples were incubated with a 1:5 dilution of PLUS® and MINUS® Duolink In Situ PLA Probe (Sigma-Aldrich, DUO92002 and DUO92004) for 1 hour at 37 °C. Three additional washes in Buffer A® preceded a 30-minute incubation with 1 unit/μL of T4 DNA ligase diluted in ligase buffer (1:5, Sigma-Aldrich, DUO92013) at 37 °C. Subsequently, cells were washed three times again in Buffer A® and treated with 5 units/μL of DNA polymerase in diluted polymerase buffer (1:5, Sigma-Aldrich, DUO92013) for 100 min at 37 °C. Finally, cells were washed twice for 10 minutes each in 1× Buffer B® (Sigma-Aldrich, DUO82049), then quickly washed for 1 min in 0.01× Buffer B®. The slides were mounted using DUOlink in situ mounting medium containing DAPI, and the images were captured using a Leica TCS SP8 confocal microscope.

CTGF, CYR61 and AREG = assay: qPCR of YAP-target genes in cells; type: cell-based; details: Huh-7 cells, 10 μM
Experimental: (§3) Total RNA was isolated from cells or tissues with RNAiso Plus Reagent (TaKaRa, 9108). SuperScript Ⅲ reverse transcriptase (Invitrogen,18080093) was employed to synthesize first-strand cDNA. Real-time PCR was performed in an ABI Step One Real-time Detection System (Life Technologies) using SYBR Green (Takara, RR420A). The primer sequences are listed in supplementary Table 2.

Hep3B cells = assay: Proliferation of HCC cells; type: cell-based
SOX9^KO Huh-7 cells = assay: Proliferation of SOX9KO Huh-7 cells; type: cell-based; details: SOX9^KO Huh-7 cells treated with Pep-peptides
Huh-7 xenograft = assay: Huh-7 subcutaneous xenograft model; type: in vivo, BALB/c nude mice
Experimental: (§4) Huh-7 cells (1×106) or Huh-7 cells infected with different viruses were injected subcutaneously into the right flank of male athymic BALB/c nude mice (5 weeks old). Tumor volumes were measured and analyzed using the equation: volume = π/6×length×(width)2.Once the average tumor volume reached approximately 60 mm3, the mice were randomly divided into five groups (eight mice per group) and treated with intratumorally injections of Pep-S-A1, Pep-D125A, or saline twice weekly. For the orthotopic HCC model, 1×10^6 Huh-7 cells expressing luciferase were injected subcutaneously into the right flank of BALB/c nude mice to establish tumor xenografts. The tumor nodules derived from xenograft model and then were divided into 1 mm3 pieces and subsequently implanted into the left lobe of the livers of 5-week-old male BALB/c nude mice to mimic primary HCC. The mice were randomly separated into two groups (eight animals per group) according to the bioluminescence 3 days after implantation. Pep-S-A1 or Pep-D125A was then injected via the tail vein every 5 days. The mice were regularly monitored using a luminal imaging system (Caliper) once each week and killed 2 weeks post tumor fragments transplanted.

[4] = system: luciferase-expressing Huh-7 tumors; assay: Orthotopic HCC model; type: in vivo, BALB/c nude mice; details: 2-week delivery
Experimental: as §4

HCC cells = assay: Proliferation of Huh-7 / HCC cells; type: cell-based
SOX9-HMG domain = target: T2, SOX9-HMG domain (Homo sapiens, UniProt P48436); assay: MST binding to SOX9-HMG domain; details: 50 mM Tris-HCl pH 7.4, 150 mM NaCl, 0.05% Tween-20, effect of R124K mutation on YAP peptide (aa 115–135)
T2 construct: made in house; host or cells: Escherichia coli
Experimental: (§5) His-tagged YAP and the SOX9-HMG domain purified from Escherichia coli were labeled with 25 nM RED-tris-NTA 2nd Generation dye at room temperature for 10 min. Then, the labeled protein was incubated with a serially diluted peptide or protein for 10 min at room temperature. MST buffer containing 50 mM Tris-HCl [pH 7.4], 150 mM NaCl, and 0.05% Tween-20 was used in all measurements. The solution was centrifuged for 10 min at 4 °C and 15,000 g, and the supernatant was transferred to a fresh tube. The sample was loaded into the capillaries and measured at 40% LED/excitation power and medium MST power. The KD was determined in MO. Affinity Analysis using the KD fit.

YAP [5] = target: T1, YAP; assay: MST binding to YAP protein; set-up: made in house; host or cells: Escherichia coli; details: 50 mM Tris-HCl pH 7.4, 150 mM NaCl, 0.05% Tween-20, effect of D125A mutation on S-A1 binding
Experimental: as §5

YAP-R124me2a = YAP-R124me2a level in cells (immunoblot); type: cell-based; details: Huh-7 cells co-transfected with V5-YAP and siPRMT1
Experimental: as §2

Huh-7 cells = assay: TEAD activity and oncogenic properties of Huh-7 cells; type: cell-based; details: Huh-7 cells treated with Lenti-YAP and siPrmt1 simultaneously
PLC cells = assay: YAP-induced gene expression and malignant features of PLC cells; type: cell-based; details: PLC cells infected with lenti-YAP; siRNA 20 nmol/L
Experimental: as §3

YAP-TEAD interaction = details: cited from earlier work
Excerpt: (§6) The formation of YAP-partner complexes under certain pathological conditions makes YAP an ideal drug target.[44]–[46] […] In light of this, impeding ...

ovarian cancer = details: cited from earlier work
Excerpt: as §6

T1 sequence (P46937 whole entry): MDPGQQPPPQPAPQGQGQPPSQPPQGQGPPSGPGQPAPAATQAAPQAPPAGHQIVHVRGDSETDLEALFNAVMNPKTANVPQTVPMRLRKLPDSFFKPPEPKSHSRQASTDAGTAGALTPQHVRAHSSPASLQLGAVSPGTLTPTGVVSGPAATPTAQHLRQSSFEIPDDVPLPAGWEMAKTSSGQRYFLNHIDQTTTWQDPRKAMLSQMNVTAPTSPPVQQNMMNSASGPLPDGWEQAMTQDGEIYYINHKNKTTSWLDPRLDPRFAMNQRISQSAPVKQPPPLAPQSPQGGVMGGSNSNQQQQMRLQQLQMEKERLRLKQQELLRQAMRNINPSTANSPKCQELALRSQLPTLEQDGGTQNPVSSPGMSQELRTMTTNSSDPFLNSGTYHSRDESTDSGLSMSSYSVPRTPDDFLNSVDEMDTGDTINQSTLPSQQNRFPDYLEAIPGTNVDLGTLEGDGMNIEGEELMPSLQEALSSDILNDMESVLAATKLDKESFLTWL
T2 sequence (P48436 98-181): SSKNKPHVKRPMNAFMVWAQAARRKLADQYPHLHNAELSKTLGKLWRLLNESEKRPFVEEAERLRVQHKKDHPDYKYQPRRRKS

## Clc1ccc(C(c2ccc(Cl)cc2)n2cc[n+](CC(OCc3ccc(Cl)cc3Cl)c3ccc(Cl)cc3Cl)c2)cc1 (centres unmarked) [CDZ, calmidazolium chloride]
YAP [1]; CDZ 5 nM, 24 h, Huh-7 cells transfected with V5-YAP, fractionation and immunoblot
  nuclear translocation of YAP: significantly inhibited nuclear translocation of YAP
YAP-TEAD; CDZ 5 nM, 24 h, Huh-7 cells overexpressing YAP or YAP^S127A, 8×GTIIC reporter
  transactivation of the YAP-TEAD reporter: significantly inhibited nuclear translocation of YAP and the transactivation of the YAP-TEAD reporter
SOX9
  nuclear level of SOX9: decreased the nuclear level of SOX9

## CC(C)Oc1ccc(-c2c[nH]cc2CN(C)CCN)cc1 [MS023]
YAP [1]; fractionation and immunoblot
  nuclear transport of YAP: remarkedly blocked the nuclear transport of YAP in HCC cells

## Pep-S-A1: S-A1 linked to a cell-penetrating peptide (Pep) via a di-glycine linker (HLYVSPWGGAFMVWAQAARRKLADQ)
YAP-SOX9 interaction [2]; HCC cells (Huh-7), peptides at indicated concentrations for 24 h
  disruption of YAP-SOX9 interaction (Co-IP): disrupted the YAP-SOX9 interaction in HCC cells in a dose-dependent manner
YAP-SOX9 interaction [3]
  disruption of YAP-SOX9 interaction (PLA): disrupted the YAP-SOX9 interaction in HCC cells in a dose-dependent manner
YAP [1]; Huh-7 cells, live cell-imaging
  nuclear YAP levels: reduced nuclear YAP levels
CTGF, CYR61 and AREG
  YAP-target gene expression: inhibited YAP-target gene expression
YAP-TEAD; Huh-7 cells, 8×GTIIC reporter, 10 μM
  YAP-TEAD activity: suppressed YAP-TEAD activity
Hep3B cells
  proliferation of Hep3B cells: inhibited the proliferation of Hep3B cells
SOX9^KO Huh-7 cells
  proliferation of SOX9KO Huh-7 cells: had no effect on SOX9^KO Huh-7 cells
Huh-7 xenograft; Huh-7 xenograft, IHC, 8 mg/kg
  YAP nuclear staining in tumor tissues: reduced YAP nuclear staining
Huh-7 xenograft; Huh-7 xenograft, qPCR of CTGF, CYR61 and AREG
  downstream gene transcription in tumor tissues: reduced YAP nuclear staining and downstream gene transcription in the tumor tissues
Huh-7 xenograft; nude mice, intratumoral injection, twice weekly (day 1 and day 4), eight mice per group
  tumor growth (Huh-7 subcutaneous xenograft): dose-dependently suppressed tumor growth
[4]; orthotopic HCC, IHC, tail vein every 5 days
  YAP nuclear aggregation in tumor tissues: notably inhibited YAP nuclear aggregation
[4]; orthotopic HCC, qPCR of CTGF, CYR61 and AREG
  downstream gene expression in tumor tissues: notably inhibited YAP nuclear aggregation and downstream gene expression in the tumor tissues
[4]; orthotopic HCC, tail vein every 5 days, compared with Pep-D125A, eight animals per group
  emitted bioluminescence: significantly reduced the emitted bioluminescence
[4]; tail vein every 5 days, compared with Pep-D125A, eight animals per group
  tumor growth (orthotopic HCC): significantly reduced the emitted bioluminescence and tumor growth compared with Pep-D125A
HCC cells
  HCC cell proliferation: inhibited HCC cell proliferation

## R124K: YAP peptide (aa 115–135) with R124K mutation (AGALTPQHVKAHSSPASLQLG; UniProt P46937 115-135, looked up, variant R124K)
SOX9-HMG domain
  binding to SOX9-HMG (MST): abolished

## S-A1-D125A: S-A1 peptide with D125A mutation (AFMVWAQAARRKLAAQ)
YAP [5]
  binding to YAP (MST): abolished this binding

## siPRMT1: siRNA GAGUUCACACGCUGCCACAtt (guide GAGUUCACACGCUGCCACATT; chemistry not given here)
YAP-SOX9 interaction [2]; Huh-7 cells co-transfected with V5-YAP and siPRMT1
  YAP-SOX9 interaction: reduced YAP-SOX9 interaction
YAP [1]; fractionation and immunoblot
  nuclear transport of YAP: remarkedly blocked the nuclear transport of YAP in HCC cells
YAP-TEAD; Huh-7 cells transfected with siPRMT1
  YAP activity (8×GTIIC reporter): decreased YAP activity
YAP-R124me2a
  YAP-R124me2a level: decreased the YAP-R124me2a level
Huh-7 cells
  TEAD activity and oncogenic properties triggered by YAP: significantly reversed the elevated TEAD activity and oncogenic properties of Huh-7 cells triggered by YAP

## siSOX9: siRNA CCACCUUCACCUACAUGAAtt (guide CCACCUUCACCUACAUGAATT; chemistry not given here)
PLC cells
  YAP-induced gene expression and malignant features: notably attenuate the YAP-induced gene expression and malignant features of PLC cells

## verteporfin
YAP-TEAD interaction
  YAP-TEAD interaction: blocked the YAP-TEAD interaction
Ovarian cancer
  ovarian cancer growth in mice: suppressed ovarian cancer growth in mice
